Results as given in patent US10100006B2, “Compound having immune disease treatment effect and use thereof” (THE CATHOLIC UNIVERSITY OF KOREA INDUSTRY—ACADEMIC …, priority 2014, dated 2018).

Legend:
STAT3 = experiment: Inflammatory gene expression, RT-PCR: STAT3; assay type: cell-based; details: A: Normal mouse cells; control = 1
IFN-r [1] = experiment: Production of inflammatory cytokines, ELISA: IFN-r, mouse spleen cells; assay type: cell-based
TNF-a [2] = experiment: Production of inflammatory cytokines, ELISA: TNF-a, mouse spleen cells; assay type: cell-based
IgG1 = experiment: Autoantibody production, sandwich ELISA: IgG1; assay type: cell-based, mouse
Total IgG = experiment: Autoantibody production, sandwich ELISA: Total IgG; assay type: cell-based, mouse
Th17 cells = experiment: Inhibition of Th17 cells, flow cytometry; assay type: cell-based, mouse
IL-6 = experiment: Production of inflammatory cytokines, ELISA: IL-6, mouse spleen cells; assay type: cell-based
Treg cells = experiment: Treg cell-induced activity, flow cytometry; assay type: cell-based, mouse; details: TCR condition
IgG2 = experiment: Autoantibody production, sandwich ELISA: IgG2; assay type: cell-based, mouse
osteoclasts = experiment: Inhibition of differentiation of osteoclasts, TRAP staining; assay type: cell-based, mouse; details: M-CSF and RANKL
MMP-9 = experiment: Inflammatory gene expression, RT-PCR: MMP-9; assay type: cell-based, mouse; details: control = 1
[3] = test system: cells in each test group disclosed in Table 3; experiment: Cytotoxicity analysis (MTT assay); assay type: cell-based, mouse; human; details: treatment for each concentration, 72 hrs; normal cells and disease-group cells; compared with control or metformin-treated group
Procedure: In order to verify whether the compounds synthesized in the present invention causes the cytotoxicity in the cells, an MTT assay was performed, target cells were divided to be the number of 2×10^5 cells per well on a 96 well plate, treated with the compounds of the present invention for each concentration, incubated for 72 hrs, added with an MTT solution (0.5% 3-4,5-dimethyl thiazol-2-yl)-2,5-diphenyl-2H-tetrazolium bromide), and incubated for 4 hrs again. Thereafter, absorbance at 540 nm was measured by an enzymelinked immunospecific assay (ELISA) meter to observe the cytotoxicity.
In order to verify whether the novel compounds synthesized in Example 1 have the cytotoxicity, a cell survival rate was verified through the MTT assay by targeting cells in each test group disclosed in Table 3 above. That is, the cells of each test group were divided according to the number of 2×10^5 cells per well and treated with the novel synthesized compounds of the present invention for each concentration, and the cell survival rate was analyzed.

IL-17 [4] = experiment: Production of inflammatory cytokines, ELISA: IL-17, lymphocytes of human peripheral blood; assay type: cell-based; details: D: Lymphocytes of human peripheral blood
Procedure: (§1) Further, in a lupus-developed mouse model, a sanroque mouse used in a lupus model in the art was used and the human P.B group was used by obtaining lymphocytes from the human peripheral blood. The isolation of spleen cells and the isolation of lymphocytes from each mouse and the human peripheral blood were performed by a general method which was widely known in the art and the obtained cells were incubated for 72 h under the anti-CD3 0.5 μg/ml stimulation condition, activated, and then used.
(§2) In order to verify whether the novel compounds of the present invention have an effect on inflammation and the production of inflammatory cytokines as cause substances of the immune diseases, the inventors analyzed the production degree of IL-17, IL-6, TNF-α, IFN-γ, MMP-9, and STAT-3 and the expression degree of mRNA of these cytokines by targeting each test group. The production degree of the inflammatory cytokines was analyzed through an ELISA after obtaining a supernatant by targeting cells which were treated with the compound of the present invention and incubated, and particularly, the cells reacted with cytokine-specific antibodies anti-IL-17, anti-IL-6, anti-TNF-α, anti-IFN-γ, anti-MMP-9, and anti-STAT-3 all night at […] and then non-specific binding was blocked with a blocking solution (1% BSA/PBST). Thereafter, each biotinylated antibody was reacted at room temperature for 2 hrs, washed four times, and then reacted at room temperature for 2 hrs after diluting and adding an extravidin-alkaline phosphatase conjugate. Thereafter, a PNPP/DEA solution was added and colored, and then the absorbance was measured at a wavelength of 405 nm.

IL-17 [5] = experiment: Production of inflammatory cytokines, ELISA: IL-17, mouse spleen cells; assay type: cell-based
TNF-a [6] = experiment: Inflammatory gene expression, RT-PCR: TNF-a; assay type: cell-based, mouse; details: control = 1
IFN-r [7] = experiment: Production of inflammatory cytokines, ELISA: IFN-r, lymphocytes of human peripheral blood; assay type: cell-based; details: D: Lymphocytes of human peripheral blood
Procedure: as §1, §2

Q: CCN(C(=N)NC(=N)N)c1ccc(F)cc1 [SD-282, N-Ethyl-N-(4-fluorophenyl) biguanide] was tested. Which STAT3 gene expression (STAT3) did it give?
A: 0.6 gene expression

Q: And the IFN-r production (IFN-r [1]; A: Normal mouse cells)?
A: 3.3 ng/mL

Q: What about the IFN-r production (IFN-r [1]; B: Rheumatoid arthritis cells) of the same compound?
A: 2.9 ng/mL

Q: And the IFN-r production (IFN-r [1]; C: Lupus cells)?
A: 7.6 ng/mL

Q: What about the TNF-a production (TNF-a [2]; A: Normal mouse cells) of the same compound?
A: 0.4 ng/mL

Q: What about the TNF-a production (TNF-a [2]; B: Rheumatoid arthritis cells) of the same compound?
A: 0.4 ng/mL

Q: And the TNF-a production (TNF-a [2]; C: Lupus cells)?
A: 0.7 ng/mL

Q: And the IgG1 (IgG1; A: Normal mouse cells)?
A: 1 ng/mL

Q: And the IgG1 (IgG1; B: Rheumatoid arthritis cells)?
A: 218.7 ng/mL

Q: What about the IgG1 (IgG1; C: Lupus cells) of the same compound?
A: 425.4 ng/mL

Q: And the “Total IgG” value (Total IgG; A: Normal mouse cells)?
A: 0.7 ng/mL

Q: And the “Total IgG” value (Total IgG; B: Rheumatoid arthritis cells)?
A: 60.3 ng/mL

Q: And the “Total IgG” value (Total IgG; C: Lupus cells)?
A: 127.7 ng/mL

Q: What about the Th17 (Th17 cells; TCR condition, A: Normal mouse cells) of the same compound?
A: 1.2

Q: What about the Th17 (Th17 cells; TCR condition, B: Rheumatoid arthritis cells) of the same compound?
A: 1.5

Q: What about the Th17 (Th17 cells; TCR condition, C: Lupus cells) of the same compound?
A: 0.9

Q: What about the Th17 (Th17 cells; Th17 condition (Th17 differentiation condition), A: Normal mouse cells) of the same compound?
A: 0.5

Q: And the IL-6 production (IL-6; A: Normal mouse cells)?
A: 1.3 ng/mL

Q: What about the IL-6 production (IL-6; B: Rheumatoid arthritis cells) of the same compound?
A: 1.3 ng/mL

Q: What about the IL-6 production (IL-6; C: Lupus cells) of the same compound?
A: 1 ng/mL

Q: What about the Treg (Treg cells; A: Normal mouse cells) of the same compound?
A: 2.5

Q: What about the Treg (Treg cells; B: Rheumatoid arthritis cells) of the same compound?
A: 4.6

Q: And the Treg (Treg cells; C: Lupus cells)?
A: 2.9

Q: What about the IgG2 (IgG2; A: Normal mouse cells) of the same compound?
A: 37.1 ng/mL

Q: What about the IgG2 (IgG2; B: Rheumatoid arthritis cells) of the same compound?
A: 38.3 ng/mL

Q: What about the IgG2 (IgG2; C: Lupus cells) of the same compound?
A: 110.9 ng/mL

Q: What about the “TRAP + Cell” value (osteoclasts; A: Normal mouse cells) of the same compound?
A: 157

Q: And the “TRAP + Cell” value (osteoclasts; B: Rheumatoid arthritis cells)?
A: 89

Q: And the MMP-9 gene expression (MMP-9; A: Normal mouse cells)?
A: 0.1 gene expression

Q: What about the MMP-9 gene expression (MMP-9; B: Rheumatoid arthritis cells) of the same compound?
A: 0.08 gene expression

Q: What about the MMP-9 gene expression (MMP-9; C: Lupus cells) of the same compound?
A: 1.3 gene expression

Q: What about the “cytotoxicity (cell survival rate, MTT)” value [3] of the same compound?
A: cytotoxicity was not observed

Q: And the IL-17 production (IL-17 [4])?
A: 0.1 ng/mL

Q: What about the IL-17 production (IL-17 [5]; A: Normal mouse cells) of the same compound?
A: 1.7 ng/mL

Q: And the IL-17 production (IL-17 [5]; B: Rheumatoid arthritis cells)?
A: 2.1 ng/mL

Q: And the IL-17 production (IL-17 [5]; C: Lupus cells)?
A: 0.6 ng/mL

Q: What about the TNF-a gene expression (TNF-a [6]; A: Normal mouse cells) of the same compound?
A: 0.07 gene expression

Q: And the TNF-a gene expression (TNF-a [6]; B: Rheumatoid arthritis cells)?
A: 0.06 gene expression

Q: What about the TNF-a gene expression (TNF-a [6]; C: Lupus cells) of the same compound?
A: 0.8 gene expression

Q: What about the IFN-r production (IFN-r [7]) of the same compound?
A: 0.1 ng/mL
